Common to all, as to type: in vivo
Assay [1] has as its system corn. The experiment in a line: SDI split plot field study, 113 day maturity corn hybrid, Examples 13-14. The note with it: 50% irrigated deficit. The protocol:
A randomized complete block (split plot) study using Subsurface Drip Irrigation (SDI) was conducted on a deep silt loam soil using a 113 day maturity corn hybrid. This trial was conducted to quantify the impact of treatments on grain yield and water productivity of corn under limited (deficit) and fully-irrigated setting. The study utilized a subsurface drip irrigation (SDI) system with a nominal dripline flowrate of 0.25 gpm/100 ft for a 5-ft dripline spacing and 24-inch emitter spacing, installed at a depth of 16-18 inches. Irrigation control panels, chemical injection pumps, and filters were housed at the irrigation well house to manage irrigation and chemigation events.
The field study was set up as a randomized complete plot design with three replications on silt loam soil.
Each plot was 8 rows wide (6.1 meters) by 15 meters long. Soil water status was monitored throughout the growing season using soil moisture sensors. Corn seed was planted with a precision planter at a depth of 2 inches and rows spaced at 30 inches. The planting population was 30,000 seeds per acre. Testing parameters, and irrigation levels were conducted according to the Kansas State University experimental procedure [see, e.g.,: (1) Lamm, F. R., A. J. Schlegel, and G. A. Clark. 2003. Development of a Best Management Practice for Nitrogen Fertigation of Corn Using SDI. Appl. Engr in Agric. and (2) Lamm, F. R., H. L. Manges, L. R. Stone, A. H. Khan, and D. H. Rogers. 1995. Water requirement of subsurface drip-irrigated corn in northwest Kansas. Trans. ASAE, 38(2):441-448.]. Moisture levels, irrigation levels, evapotranspiration, and plant health were measured throughout the growing season. Climatic variables were measured (air temperature, rainfall, solar and net radiation, relative humidity, rainfall, wind speed and direction) throughout the season.
Irrigation for the fully irrigated treatments was scheduled according to need by a climatic water budget using calculated evapotranspiration as a withdrawal and with rainfall and irrigation as deposits. Irrigation amounts for each event for the fully irrigated plots were generally 0.5 inches for each event. The deficit irrigation treatments were scheduled at approximately 50% of the fully irrigated plots (5.9 inches/acre vs. 13.55 inches of water/acre). Volumetric soil water content was measured in one-foot increments to a depth of 8 ft on an approximately weekly basis throughout the crop season to determine total water use. Crop water use was calculated as the sum of irrigation, precipitation and changes in soil water between the initial and final soil water sampling dates. Water productivity was calculated as the crop yield divided by the seasonal water use. Maintenance crop protection products were applied as needed to manage weeds and pests throughout the season for all treatments including the control. Moddus (trinexapac-ethyl) was foliar-applied (tractor mounted sprayer) twice at a rate of 250 gai/ha at approximately the V3+V7 stages of the corn. Azoxystrobin (Quadris) was applied twice via drip irrigation at a rate of 0.8 fl. oz/1000 linear ft (261 gai/ha) at approximately V6 & R1 stages of the corn. Crop yield from each replication was recorded after harvest and adjusted to 15% moisture content. Corn yield components of crop grain yield, plants/area, ears/plant, and kernel weight were measured by hand harvesting a representative sample (20 feet long for one crop row near the center of each subplot).

Assay [2] deals with corn. The experiment in a line: Lateral-move sprinkler irrigation field study, 112 day maturity corn hybrid, Examples 24-25. The settings on record: 250 gai/ha, 60% irrigated deficit. The protocol: Testing Procedure: A sprinkler irrigation field study was conducted on a deep silt loam soil using a 112 day maturity corn hybrid. This trial was conducted to quantify the impact of azoxystrobin and trinexapac-ethyl on grain yield, and water productivity of corn under limited (deficit) and fully-irrigated settings. The study utilized a lateral-move sprinkler irrigation (LMS) system. The study was replicated three times in an […]. Each main plot was approximately 185 sq. meters. Irrigation control panels, chemical injection pumps, and filters were housed at the irrigation well house to manage irrigation and chemigation events.
Soil water status was monitored throughout the growing season using soil moisture sensors. Corn seed was planted with a precision planter at a depth of 2 inches and rows spaced at 30 inches. The planting population was 30,000 seeds per acre. Testing parameters, and irrigation levels were conducted according to the Kansas State University experimental procedure [see e.g., (1) Lamm, F. R., A. J. Schlegel, and G. A. Clark. 2003. Development of a Best Management Practice for Nitrogen Fertigation of Corn Using SDI. Appl. Engr in Agric. and (2) Lamm, F. R., H. L. Manges, L. R. Stone, A. H. Khan, and D. H. Rogers. 1995. Water requirement of subsurface drip-irrigated corn in northwest Kansas. Trans. ASAE, 38(2):441-448.]. Moisture levels, irrigation levels, evapotranspiration, and plant health were measured throughout the growing season. Climatic variables were measured (air temperature, rainfall, solar and net radiation, relative humidity, rainfall, wind speed and direction) throughout the season. Irrigation for the fully irrigated treatments was scheduled according to need by a climatic water budget using calculated evapotranspiration as a withdrawal and with rainfall and irrigation as deposits. Irrigation amounts for each event for the fully irrigated plots were generally 0.96 inches for each event. The deficit irrigation treatments were scheduled at approximately 60% of the fully irrigated plots. Volumetric soil water content was measured in one-foot increments to a depth of 8 ft on an approximately weekly basis throughout the crop season to determine total water use. Crop water use was calculated as the sum of irrigation, precipitation and changes in soil water between the initial and final soil water sampling dates. Water productivity (WUE) was calculated as the crop yield divided by the seasonal water use (Water Productivity (WP)=Yield/ETc). […] Crop yield from each replication was recorded after harvest and adjusted to 15% moisture content. Corn yield components of crop grain yield, plants/area, ears/plant, and kernel weight were measured by hand harvesting a representative sample.

In assay [3] the test system is corn. Briefly: SDI split plot field study, 115 day maturity corn hybrid, deficit vs fully irrigated, Example 3. The note with it: 261 gai/ha, 50% irrigated deficit.
In assay [4] the test system is corn. Briefly: Lateral-move sprinkler irrigation field study, 113 day maturity corn hybrid, Examples 11-12. The note with it: 261 gai/ha, 60% irrigated deficit.
For assay [5], the system named is corn. The experiment in a line: SDI chemigation field study under dryland/rainfed conditions, Examples 15-16. The note with it: 261 gai/ha, 0% irrigated rainfed/dryland.

The source of these data is US20140096445A1, “METHOD OF CULTIVATION IN WATER DEFICIT CONDITIONS” (SYNGENTA PARTICIPATIONS AG, priority 2011, published 2014).

For `CCOC(=O)C1CC(=O)C(=C(O)C2CC2)C(=O)C1` (stereo not drawn) [TXP, trinexapac-ethyl], the Yield with corn [1] (250 gai/ha, foliar-applied twice (V3+V7)) is reported as 235 Bu./acre. Moreover, in the assay with corn [1] (250 gai/ha, foliar-applied), the “% Yield Increase by Product over Untr./50% irr.” value is reported as “+28% Incr. over” and the “Water Prodctivity (IWUE)” value was 462 pounds of corn per inch of water applied. Also, in the assay with corn [2], the “% IWUE Increase over Untr./60% irr.” value is given as “+5% over”, the “% Yield Increase over Untr./60% irr.” value is on record as “+3.5% over”, the “IWUE (water productivity)” value was determined as 484 lbs/acre inch and the Yield is on record as 209 Bu./acre.
In the assay with corn [3] (foliar twice (V8 & V8+14da.)), `CO/C=C(/C(=O)OC)c1ccccc1Oc1cc(Oc2ccccc2C#N)ncn1` [Azoxystrobin, azoxystrobin] displayed a Yield of 250 Bu./acre. Besides, in the assay with corn [3] (foliar), the “Azoxystrobin % IWUE Increase over Untr./50% Irr.” value is recorded as “+3% incr. over”, the “Azoxystrobin % IWUE Increase over Untr./100% Irr.” value is “+7% incr. over”, the “Azoxystrobin % Yield Increase over Untr./50% Irr.” value was “+3% incr. over” and the “Azoxystrobin % Yield Increase over Untr./100% Irr.” value was “+0% incr. over”. Further, the “IWUE (water productivity)” value in the assay with corn [3] (foliar) is given as 494 lbs./acre in. Further, in the assay with corn [4] (chemigated), the “Azoxystrobin % IWUE Increase over Untr./60% irr.” value was “+11% over”, the “Azoxystrobin % Yield Increase over Untr./60% irr.” value is “+5% over” and the “IWUE (water productivity)” value is on record as 515 lbs/acre inch. Further, the Yield in the assay with corn [4] (foliar applied (V6 & R1)) is on record as 239 Bu./acre. In addition, in the assay with corn [4] (foliar applied), the “Azoxystrobin % IWUE Increase over Untr./60% irr.” value is recorded as “+16% over”, the “Azoxystrobin % Yield Increase over Untr./60% irr.” value is listed as “+7% over” and the “IWUE (water productivity)” value was found to be 540 lbs/acre inch. The molecule further returned a Yield in the assay with corn [4] (sprinkler chemigated (V6 & R1)) of 236 Bu./acre. For the same molecule, the Yield in the assay on corn [1] (261 gai/ha, SDI chemigated twice (V6 & R1)) is listed as 212^ Bu./acre. In the assay on corn [1] (261 gai/ha, SDI chemigated), the “% Yield Increase by Product over Untr./50% irr.” value was “+16% Incr. over”, the “% increase in Water Productivity by Product over 50% irr.” value was “+18% Incr” and the “Water Prodctivity (IWUE)” value is 426 pounds of corn per inch of water applied. This molecule also returned a Yield with corn [5] (SDI chemigated (V6 & R1)) of 166.2 Bu./acre. In the assay on corn [5] (SDI chemigated), the “Azoxystrobin % CWUE Increase over Untr./0% irr.” value is on record as “+142% incr over”, the “Azoxystrobin % Yield Increase over Untr./0% irr.” value was “+9.6% incr over” and the “CWUE (crop water use efficiency)” value was 1.125 Bu./inch. For the same molecule, in the assay on corn [5] (foliar applied (V6 & R1)), the Yield was found to be 161.8 Bu./acre. Moreover, in the assay with corn [5] (foliar applied), the “Azoxystrobin % CWUE Increase over Untr./0% irr.” value was “+108% incr over”, the “Azoxystrobin % Yield Increase over Untr./0% irr.” value was “+6.7% incr over” and the “CWUE (crop water use efficiency)” value is recorded as 0.965 Bu./inch.
